Here are results for 17 compounds from patent US9434763B2, “Derivatives of pyridinone as inhibitors for tissue transglutaminase” (ZEDIRA GMBH, priority 2012, dated 2016).

Experiment [1] deals with T1, TG1 (transglutaminase 1) (Homo sapiens, UniProt P22735).
T1 construct: purchased Zedira T009
T1 sequence (P22735 1-817): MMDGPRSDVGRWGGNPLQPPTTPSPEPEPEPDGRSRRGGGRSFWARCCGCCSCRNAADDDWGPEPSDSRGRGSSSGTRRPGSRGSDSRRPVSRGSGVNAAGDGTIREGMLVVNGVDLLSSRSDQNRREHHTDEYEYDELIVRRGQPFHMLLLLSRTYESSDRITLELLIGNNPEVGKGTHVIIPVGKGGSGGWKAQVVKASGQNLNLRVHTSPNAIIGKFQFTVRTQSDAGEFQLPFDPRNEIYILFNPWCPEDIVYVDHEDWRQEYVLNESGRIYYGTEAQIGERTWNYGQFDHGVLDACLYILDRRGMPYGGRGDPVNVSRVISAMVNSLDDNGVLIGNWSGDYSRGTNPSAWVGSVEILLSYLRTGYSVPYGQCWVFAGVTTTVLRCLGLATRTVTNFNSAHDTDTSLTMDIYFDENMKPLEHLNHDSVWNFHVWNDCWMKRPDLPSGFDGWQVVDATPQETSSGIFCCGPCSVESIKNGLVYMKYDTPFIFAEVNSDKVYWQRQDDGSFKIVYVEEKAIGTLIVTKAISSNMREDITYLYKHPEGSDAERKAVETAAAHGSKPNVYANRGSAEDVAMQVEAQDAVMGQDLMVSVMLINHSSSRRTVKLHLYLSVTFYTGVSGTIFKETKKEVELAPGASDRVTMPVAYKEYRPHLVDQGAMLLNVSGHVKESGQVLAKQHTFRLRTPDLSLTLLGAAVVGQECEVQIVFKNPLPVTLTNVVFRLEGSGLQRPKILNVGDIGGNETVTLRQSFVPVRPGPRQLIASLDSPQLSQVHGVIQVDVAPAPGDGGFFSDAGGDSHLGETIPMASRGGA
Put plainly: Comparative transglutaminase selectivity assay with casein and dansylcadaverine as substrates: TG1. The class given is biochemical. The following applies: casein as substrate. From the text: The comparative determination of different transglutaminases to determine the selectivity was made with casein and dansylcadaverine as substrates. Therefore, the kit T036 (Zedira, Darmstadt; Refs: Lorand et al, Anal Biochem, 1971, 44:221-31) as well as transglutaminase products T009 (transglutaminase 1), T012 (transglutaminase 3), T021 (transglutaminase 6) and T027 (plasma transglutaminase, factor XIII) are used. Therefore, two different IC50 values for the compounds are given.
The evaluation of the resulting enzyme activity is done using the slope of the straight line obtained by the increase in fluorescence.
To determine the non-inhibited enzyme activity, DMSO instead of inhibitor stock solution is used. IC50 values are determined by plotting the resulting enzyme activity against the logarithm of the inhibitor concentration. IC50 is defined as the concentration of inhibitor resulting in 50% of enzyme activity.
It should be noted that it was measured here against casein as substrate, which is why other apparent inhibition values (IC50 value) result.

Experiment [2] addresses T2, His tagged recombinant human tissue transglutaminase (His6-rh-TG2) (Homo sapiens, UniProt P21980).
T2 construct: purchased Zedira T002
T2 sequence (P21980 1-687): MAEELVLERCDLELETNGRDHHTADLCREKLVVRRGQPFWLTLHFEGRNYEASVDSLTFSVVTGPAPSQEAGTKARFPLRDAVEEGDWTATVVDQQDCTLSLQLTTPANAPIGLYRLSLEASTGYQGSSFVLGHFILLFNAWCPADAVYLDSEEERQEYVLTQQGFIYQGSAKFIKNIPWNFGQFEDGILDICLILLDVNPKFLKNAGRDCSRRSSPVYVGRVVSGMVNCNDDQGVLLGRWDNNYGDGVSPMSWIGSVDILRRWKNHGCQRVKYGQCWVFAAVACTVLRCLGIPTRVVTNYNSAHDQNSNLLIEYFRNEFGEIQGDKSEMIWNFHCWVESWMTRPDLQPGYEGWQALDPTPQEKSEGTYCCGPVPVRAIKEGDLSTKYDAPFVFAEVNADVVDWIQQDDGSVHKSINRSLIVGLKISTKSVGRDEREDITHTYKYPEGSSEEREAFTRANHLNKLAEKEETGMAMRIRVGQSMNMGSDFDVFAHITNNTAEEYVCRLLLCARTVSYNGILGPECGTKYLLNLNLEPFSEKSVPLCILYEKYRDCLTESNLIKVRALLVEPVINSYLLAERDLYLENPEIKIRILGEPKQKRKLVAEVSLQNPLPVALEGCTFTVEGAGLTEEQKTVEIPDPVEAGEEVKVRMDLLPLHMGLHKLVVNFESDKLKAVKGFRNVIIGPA
Put plainly: Inactivation of human tissue transglutaminase, fluorescence assay with Abz-APE(CAD-DNP)QEA-OH. The following applies: substrate Abz-APE(CAD-DNP)QEA-OH, 37° C., pH=7.5. The class given is biochemical. An outline of the steps:
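His6-rh-TG2 (10 μg per assay) was preincubated 5 min at 37 °C with inhibitor in Tris/CaCl2/PEG8000/DTT/glycine methyl ester assay solution (50 μM Abz-APE(CAD-DNP)QEA-OH), pH 7.5, DMSO <0.2%. Fluorescence (ex 313/em 418 nm) read over 15–30 min and activity taken from the slope. IC50 from activity vs log inhibitor concentration.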

Consider `CCC(CC)CNC(=O)Cn1cccc(NC(=O)[C@H](CC/C=C/C(=O)OC)NC(=O)c2cncn2C)c1=O` [A63, (S,E)-Methyl 7-(1-(2-(2-ethylbutylamino)-2-oxoethyl)-2-oxo-1,2-dihydropyridin-3-ylamino)-6-(1-methyl-1H-imidazole-5-carboxamido)-7-oxohept-2-enoate], for which the IC50 is 51.8 µM in experiment [1] and 0.045 µM in experiment [2].

With `CCOC(=O)/C=C/CC[C@H](NC(=O)c1ccccc1)C(=O)Nc1cccn(CC(=O)N[C@H](C(=O)O)[C@H](C)CC)c1=O` [A59, (2S,3R)-2-(2-(3-((S,E)-2-Benzamido-7-ethoxy-7-oxohept-5-enamido)-2-oxopyridin-1(2H)-yl)acetamido)-3-methylpentanoic acid], the IC50 amounted to 37.1 µM in experiment [1] and 0.043 µM in experiment [2]. On the same counts, the results for `CCOC(=O)/C=C/CC[C@H](NC(C)=O)C(=O)Nc1cccn(CC(=O)NCC(CC)CC)c1=O` [A62, (S,E)-Ethyl 6-acetamido-7-(1-(2-(2-ethylbutylamino)-2-oxoethyl)-2-oxo-1,2-dihydropyridin-3-ylamino)-7-oxohept-2-enoate] are 133 µM and 0.093 µM. `CCOC(=O)/C=C/CC[C@H](NC(=O)c1cncn1C)C(=O)Nc1cccn(CC(=O)NCC(CC)CC)c1=O` [A58, (S,E)-Ethyl 7-(1-(2-(2-ethylbutylamino)-2-oxoethyl)-2-oxo-1,2-dihydropyridin-3-ylamino)-6-(1-methyl-1H-imidazole-5-carboxamido)-7-oxohept-2-enoate] yielded an IC50 in experiment [1] of 97.5 µM.

Take `CCOC(=O)/C=C/CC[C@H](NC(=O)c1cncn1C)C(=O)Nc1cccn(CC(=O)NCCC(C)C)c1=O` [A19, (S,E)-Ethyl 7-(1-(2-(isopentylamino)-2-oxoethyl)-2-oxo-1,2-dihydropyridin-3-ylamino)-6-(1-methyl-1H-imidazole-5-carboxamido)-7-oxohept-2-enoate]: the IC50 in experiment [1] worked out at 96 µM; in experiment [2], 0.08 µM.

For the compound `CCOC(=O)/C=C/CC[C@H](NC(=O)CCC(=O)O)C(=O)Nc1cccn(CC(=O)NCC(CC)CC)c1=O` [A30, (S,E)-4-(7-Ethoxy-1-(1-(2-(2-ethylbutylamino)-2-oxoethyl)-2-oxo-1,2-dihydropyridin-3-ylamino)-1,7-dioxohept-5-en-2-ylamino)-4-oxobutanoic acid], the IC50 in experiment [1] was found to be 113 µM; in experiment [2], 0.116 µM. On the same counts, the results for `CCOC(=O)/C=C/CC[C@H](NC(C)=O)C(=O)Nc1cccn(CC(=O)NCCC(CC)CC)c1=O` [A42, (S,E)-ethyl 6-acetamido-7-(1-(2-(3-ethylpentylamino)-2-oxoethyl)-2-oxo-1,2-dihydropyridin-3-ylamino)-7-oxohept-2-enoate] are 86 µM and 0.147 µM. Consider `CCOC(=O)/C=C/CC[C@H](NC(=O)c1cncn1C)C(=O)Nc1cccn(CC(=O)N[C@H](C(=O)O)[C@H](C)CC)c1=O` [A53, (2S,3R)-2-(2-(3-((S,E)-7-Ethoxy-2-(1-methyl-1H-imidazole-5-carboxamido)-7-oxohept-5-enamido)-2-oxopyridin-1(2H)-yl)acetamido)-3-methylpentanoic acid], for which the IC50 in experiment [1] was found to be 68.9 µM; in experiment [2] it was 0.06 µM. In the same order, the values of `COC(=O)/C=C/CC[C@H](NC(C)=O)C(=O)Nc1cccn(CC(=O)N2CCCC(C)C2)c1=O` (stereo partly drawn) [A64, (6S,E)-Methyl 6-acetamido-7-(1-(2-(3-methylpipendin-1-yl)-2-oxoethyl)-2-oxo-1,2-dihydropyridin-3-ylamino)-7-oxohept-2-enoate] are 122 µM and 0.141 µM. On the same counts, the results for `CCOC(=O)/C=C/CC[C@H](NC(=O)CCC(=O)O)C(=O)Nc1cccn(CC(=O)NCCC(C)C)c1=O` [A24, (S,E)-4-(7-Ethoxy-1-(1-(2-(isopentylamino)-2-oxoethyl)-2-oxo-1,2-dihydropyridin-3-ylamino)-1,7-dioxohept-5-en-2-ylamino)-4-oxobutanoic acid] are 91.9 µM and 0.173 µM. In the same order, the values of `CC[C@@H](C)[C@H](NC(=O)Cn1cccc(NC(=O)[C@H](CC/C=C/C(=O)OC)NC(=O)c2cncn2C)c1=O)C(=O)O` [A60, (2S,3R)-2-(2-(3-((S,E)-7-Methoxy-2-(1-methyl-1H-imidazole-5-carboxamido)-7-oxohept-5-enamido)-2-oxopyridin-1(2H)-yl)acetamido)-3-methylpentanoic acid] are 31.1 µM and 0.054 µM. For the compound `COC(=O)/C=C/CC[C@H](NC(C)=O)C(=O)Nc1cccn(CC(=O)N2CCC(C(F)(F)F)CC2)c1=O` [A65, (S,E)-Methyl 6-acetamido-7-oxo-7-(2-oxo-1-(2-oxo-2-(4-(trifluoromethyl)piperidin-1-yl)ethyl)-1,2-dihydropyridin-3-ylamino)hept-2-enoate], the results for the IC50 in experiment [1] and in experiment [2] were 120 µM and 0.132 µM, respectively.

For the compound `CCC(CC)CNC(=O)Cn1cccc(NC(=O)[C@H](CC/C=C/C(=O)OC)NC(C)=O)c1=O` [A79, (S,E)-Methyl 6-acetamido-7-(1-(2-(2-ethylbutylamino)-2-oxoethyl)-2-oxo-1,2-dihydropyridin-3-ylamino)-7-oxohept-2-enoate], the IC50 turned out to be 80.7 µM in experiment [1] and 0.034 µM in experiment [2].

For the compound `COC(=O)/C=C/CC[C@H](NC(C)=O)C(=O)Nc1cccn(CC(=O)NCCC(C)C)c1=O` [A29, (S,E)-methyl 6-acetamido-7-(1-(2-(isopentylamino)-2-oxoethyl)-2-oxo-1,2-dihydropyridin-3-ylamino)-7-oxohept-2-enoate], the IC50 in experiment [1] stood at 28.1 µM. Regarding `CCOC(=O)/C=C/CC[C@H](NC(C)=O)C(=O)Nc1cccn(CC(=O)NCCC(C)C)c1=O` [A7, (S,E)-Ethyl 6-acetamido-7-(1-(2-(isopentylamino)-2-oxoethyl)-2-oxo-1,2-dihydropyridin-3-ylamino)-7-oxohept-2-enoate], the IC50 in experiment [1] is 28.8 µM.

`CCOC(=O)/C=C/CC[C@H](NC(C)=O)C(=O)Nc1cccn(CC(=O)N[C@H](C(=O)OC)[C@H](C)CC)c1=O` [A35, (S,E)-ethyl 6-acetamido-7-(1-(2-((2S,3R)-1-methoxy-3-methyl-1-oxopentan-2-ylamino)-2-oxoethyl)-2-oxo-1,2-dihydropyridin-3-ylamino)-7-oxohept-2-enoate]: the values for the IC50 in experiment [1] and in experiment [2] were 87.1 µM and 0.055 µM, respectively. In experiment [1], `CC[C@@H](C)[C@H](NC(=O)Cn1cccc(NC(=O)[C@H](CC/C=C/C(=O)OC)NC(=O)c2ccccc2)c1=O)C(=O)O` [A61, (2S,3R)-2-(2-(3-((S,E)-2-benzamido-7-methoxy-7-oxohept-5-enamido)-2-oxopyridin-1(2H)-yl)acetamido)-3-methylpentanoic acid] gave an IC50 of 15.3 µM.
